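Tested at 5 concentrations; 48 h exposure; 96-well plates; endpoints linearly interpolated, else capped at highest concentration. TGI marks complete inhibition of growth.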
What was measured:
Test in all cases: NCI tumour cell line growth inhibition, 48 h
HOP-62 NSCLC = test system: HOP-62 NSCLC
MCF7 breast = test system: MCF7 breast
BT-549 breast = test system: BT-549 breast
LOX IMVI melanoma = test system: LOX IMVI melanoma
HL-60(TB) leukemia = test system: HL-60(TB) leukemia
RXF 393 renal = test system: RXF 393 renal
SF-268 CNS = test system: SF-268 CNS
SR leukemia = test system: SR leukemia
OVCAR-8 ovarian = test system: OVCAR-8 ovarian
MDA-MB-435 = test system: MDA-MB-435
SK-MEL-2 melanoma = test system: SK-MEL-2 melanoma
COLO 205 colon = test system: COLO 205 colon
CAKI-1 renal = test system: CAKI-1 renal
A498 renal = test system: A498 renal
HCC-2998 colon = test system: HCC-2998 colon
HS 578T breast = test system: HS 578T breast
SN12C renal = test system: SN12C renal
MOLT-4 leukemia = test system: MOLT-4 leukemia
NCI/ADR-RES ovarian = test system: NCI/ADR-RES ovarian
EKVX NSCLC = test system: EKVX NSCLC
SF-295 CNS = test system: SF-295 CNS
T-47D breast = test system: T-47D breast
TK-10 renal = test system: TK-10 renal
A549 NSCLC = test system: A549 NSCLC
NCI-H23 lung = test system: NCI-H23 lung
HOP-92 NSCLC = test system: HOP-92 NSCLC
HCT-15 colon = test system: HCT-15 colon
OVCAR-4 ovarian = test system: OVCAR-4 ovarian
UACC-62 melanoma = test system: UACC-62 melanoma
NCI-H460 lung = test system: NCI-H460 lung
SF-539 CNS = test system: SF-539 CNS
HCT-116 colon = test system: HCT-116 colon
UO-31 renal = test system: UO-31 renal
SNB-19 CNS = test system: SNB-19 CNS
M14 melanoma = test system: M14 melanoma
IGROV1 ovarian = test system: IGROV1 ovarian
UACC-257 melanoma = test system: UACC-257 melanoma
SK-MEL-5 melanoma = test system: SK-MEL-5 melanoma
MDA-N = test system: MDA-N
SK-MEL-28 melanoma = test system: SK-MEL-28 melanoma
NCI-H522 lung = test system: NCI-H522 lung
786-0 renal = test system: 786-0 renal
OVCAR-5 ovarian = test system: OVCAR-5 ovarian
OVCAR-3 ovarian = test system: OVCAR-3 ovarian
SNB-75 CNS = test system: SNB-75 CNS
ACHN renal = test system: ACHN renal
K-562 leukemia = test system: K-562 leukemia
U251 CNS = test system: U251 CNS
PC-3 prostate = test system: PC-3 prostate
KM12 colon = test system: KM12 colon
MDA-MB-231 breast = test system: MDA-MB-231 breast
HT29 colon = test system: HT29 colon
DU-145 prostate = test system: DU-145 prostate
SW-620 colon = test system: SW-620 colon
CCRF-CEM leukemia = test system: CCRF-CEM leukemia
SK-OV-3 ovarian = test system: SK-OV-3 ovarian
RPMI-8226 leukemia = test system: RPMI-8226 leukemia

CC(C)N(C(=O)C12C3(C(=O)OC(C)(C)C)C4C5(C#N)C3C1(C(=O)OC(C)(C)C)C5C42C(=O)OC(C)(C)C)C(C)C (centres undefined)
TGI (HOP-62 NSCLC): > 100 µM
TGI (MCF7 breast): 43.9 µM
TGI (BT-549 breast): > 100 µM
TGI (LOX IMVI melanoma): 29 µM
TGI (HL-60(TB) leukemia): > 100 µM
TGI (RXF 393 renal): > 100 µM
TGI (SF-268 CNS): > 100 µM
TGI (SR leukemia): 69.6 µM
TGI (OVCAR-8 ovarian): > 100 µM
TGI (MDA-MB-435): > 100 µM
TGI (SK-MEL-2 melanoma): > 100 µM
TGI (COLO 205 colon): > 100 µM
TGI (CAKI-1 renal): > 100 µM
TGI (A498 renal): > 100 µM
TGI (HCC-2998 colon): > 100 µM
TGI (HS 578T breast): > 100 µM
TGI (SN12C renal): > 100 µM
TGI (MOLT-4 leukemia): 40.1 µM
TGI (NCI/ADR-RES ovarian): > 100 µM
TGI (EKVX NSCLC): > 100 µM
TGI (SF-295 CNS): > 100 µM
TGI (T-47D breast): > 100 µM
TGI (TK-10 renal): > 100 µM
TGI (A549 NSCLC): > 100 µM
TGI (NCI-H23 lung): > 100 µM
TGI (HOP-92 NSCLC): > 100 µM
TGI (HCT-15 colon): > 100 µM
TGI (OVCAR-4 ovarian): > 100 µM
TGI (UACC-62 melanoma): > 100 µM
TGI (NCI-H460 lung): > 100 µM
TGI (SF-539 CNS): > 100 µM
TGI (HCT-116 colon): 73.5 µM
TGI (UO-31 renal): > 100 µM
TGI (SNB-19 CNS): > 100 µM
TGI (M14 melanoma): > 100 µM
TGI (IGROV1 ovarian): > 100 µM
TGI (UACC-257 melanoma): > 100 µM
TGI (SK-MEL-5 melanoma): > 100 µM
TGI (MDA-N): > 100 µM
TGI (SK-MEL-28 melanoma): > 100 µM
TGI (NCI-H522 lung): > 100 µM
TGI (786-0 renal): > 100 µM
TGI (OVCAR-5 ovarian): > 100 µM
TGI (OVCAR-3 ovarian): > 100 µM
TGI (SNB-75 CNS): 41.8 µM
TGI (ACHN renal): > 100 µM
TGI (K-562 leukemia): > 100 µM
TGI (U251 CNS): > 100 µM
TGI (PC-3 prostate): > 100 µM
TGI (KM12 colon): > 100 µM
TGI (MDA-MB-231 breast): > 100 µM
TGI (HT29 colon): > 100 µM
TGI (DU-145 prostate): > 100 µM
TGI (SW-620 colon): > 100 µM
TGI (CCRF-CEM leukemia): 30.9 µM

O=C(Cn1nnc(-c2ccccc2)n1)N/N=C/c1cn(Cc2ccc(Cl)cc2Cl)c2ccccc12
TGI (HOP-62 NSCLC): > 100 µM
TGI (MCF7 breast): > 100 µM
TGI (BT-549 breast): > 100 µM
TGI (LOX IMVI melanoma): > 100 µM
TGI (HL-60(TB) leukemia): > 100 µM
TGI (SF-268 CNS): > 100 µM
TGI (SR leukemia): > 100 µM
TGI (OVCAR-8 ovarian): > 100 µM
TGI (MDA-MB-435): > 100 µM
TGI (SK-MEL-2 melanoma): > 100 µM
TGI (COLO 205 colon): > 100 µM
TGI (CAKI-1 renal): > 100 µM
TGI (A498 renal): > 100 µM
TGI (HS 578T breast): > 100 µM
TGI (SN12C renal): > 100 µM
TGI (MOLT-4 leukemia): > 100 µM
TGI (NCI/ADR-RES ovarian): > 100 µM
TGI (EKVX NSCLC): > 100 µM
TGI (SF-295 CNS): > 100 µM
TGI (T-47D breast): > 100 µM
TGI (TK-10 renal): > 100 µM
TGI (A549 NSCLC): > 100 µM
TGI (NCI-H23 lung): > 100 µM
TGI (HOP-92 NSCLC): > 100 µM
TGI (HCT-15 colon): > 100 µM
TGI (OVCAR-4 ovarian): > 100 µM
TGI (UACC-62 melanoma): > 100 µM
TGI (NCI-H460 lung): > 100 µM
TGI (SF-539 CNS): > 100 µM
TGI (HCT-116 colon): > 100 µM
TGI (UO-31 renal): > 100 µM
TGI (SNB-19 CNS): > 100 µM
TGI (M14 melanoma): > 100 µM
TGI (IGROV1 ovarian): > 100 µM
TGI (UACC-257 melanoma): > 100 µM
TGI (SK-MEL-5 melanoma): > 100 µM
TGI (MDA-N): > 100 µM
TGI (NCI-H522 lung): > 100 µM
TGI (786-0 renal): > 100 µM
TGI (OVCAR-5 ovarian): > 100 µM
TGI (OVCAR-3 ovarian): > 100 µM
TGI (SK-OV-3 ovarian): > 100 µM
TGI (RPMI-8226 leukemia): > 100 µM
TGI (SNB-75 CNS): > 100 µM
TGI (ACHN renal): > 100 µM
TGI (K-562 leukemia): > 100 µM
TGI (U251 CNS): > 100 µM
TGI (PC-3 prostate): > 100 µM
TGI (KM12 colon): > 100 µM
TGI (MDA-MB-231 breast): > 100 µM
TGI (HT29 colon): > 100 µM
TGI (DU-145 prostate): > 100 µM
TGI (SW-620 colon): > 100 µM
TGI (CCRF-CEM leukemia): > 100 µM
